Source: ChEMBL document CHEMBL3098031, “From NMDA receptor antagonists to discovery of selective σ₂ receptor ligands” (Bioorg Med Chem, 2014)
Calls of active or inactive are those of the source. The calls are words filed in the database; no cut-off is given here.

Legend:
[1] = biological target: Glutamate receptor ionotropic, NMDA 2B (Rattus norvegicus) (UniProt Q00960); assay: Displacement of [3H]ifenprodil from Wistar rat cerebral cortex glutamate NMDA receptor GluN2B subunit at 10 uM after 120 mins by scintillation counting analysis; format: tissue-based
Cavia porcellus = species on record: Cavia porcellus; assay: Selectivity ratio of Ki for guinea pig brain sigma1 receptor to Ki for guinea pig brain sigma2 receptor
[2] = Displacement of [3H]DTG from guinea pig brain sigma2 receptor after 120 mins by scintillation counting analysis in presence of SKF10,047; parameters: species or system Cavia porcellus
[3] = biological target: Sigma non-opioid intracellular receptor 1 (Cavia porcellus, UniProt Q60492); assay: Displacement of [3H]-(+)-pentazocine from guinea pig brain sigma1 receptor after 150 mins by scintillation counting analysis
[4] = biological target: Glutamate receptor ionotropic, NMDA 2B (Rattus norvegicus, UniProt Q00960); assay: Displacement of [3H]ifenprodil from Wistar rat cerebral cortex glutamate NMDA receptor GluN2B subunit after 120 mins by scintillation counting analysis; format: tissue-based
Sequence of Glutamate receptor ionotropic, NMDA 2B (Q00960 whole entry): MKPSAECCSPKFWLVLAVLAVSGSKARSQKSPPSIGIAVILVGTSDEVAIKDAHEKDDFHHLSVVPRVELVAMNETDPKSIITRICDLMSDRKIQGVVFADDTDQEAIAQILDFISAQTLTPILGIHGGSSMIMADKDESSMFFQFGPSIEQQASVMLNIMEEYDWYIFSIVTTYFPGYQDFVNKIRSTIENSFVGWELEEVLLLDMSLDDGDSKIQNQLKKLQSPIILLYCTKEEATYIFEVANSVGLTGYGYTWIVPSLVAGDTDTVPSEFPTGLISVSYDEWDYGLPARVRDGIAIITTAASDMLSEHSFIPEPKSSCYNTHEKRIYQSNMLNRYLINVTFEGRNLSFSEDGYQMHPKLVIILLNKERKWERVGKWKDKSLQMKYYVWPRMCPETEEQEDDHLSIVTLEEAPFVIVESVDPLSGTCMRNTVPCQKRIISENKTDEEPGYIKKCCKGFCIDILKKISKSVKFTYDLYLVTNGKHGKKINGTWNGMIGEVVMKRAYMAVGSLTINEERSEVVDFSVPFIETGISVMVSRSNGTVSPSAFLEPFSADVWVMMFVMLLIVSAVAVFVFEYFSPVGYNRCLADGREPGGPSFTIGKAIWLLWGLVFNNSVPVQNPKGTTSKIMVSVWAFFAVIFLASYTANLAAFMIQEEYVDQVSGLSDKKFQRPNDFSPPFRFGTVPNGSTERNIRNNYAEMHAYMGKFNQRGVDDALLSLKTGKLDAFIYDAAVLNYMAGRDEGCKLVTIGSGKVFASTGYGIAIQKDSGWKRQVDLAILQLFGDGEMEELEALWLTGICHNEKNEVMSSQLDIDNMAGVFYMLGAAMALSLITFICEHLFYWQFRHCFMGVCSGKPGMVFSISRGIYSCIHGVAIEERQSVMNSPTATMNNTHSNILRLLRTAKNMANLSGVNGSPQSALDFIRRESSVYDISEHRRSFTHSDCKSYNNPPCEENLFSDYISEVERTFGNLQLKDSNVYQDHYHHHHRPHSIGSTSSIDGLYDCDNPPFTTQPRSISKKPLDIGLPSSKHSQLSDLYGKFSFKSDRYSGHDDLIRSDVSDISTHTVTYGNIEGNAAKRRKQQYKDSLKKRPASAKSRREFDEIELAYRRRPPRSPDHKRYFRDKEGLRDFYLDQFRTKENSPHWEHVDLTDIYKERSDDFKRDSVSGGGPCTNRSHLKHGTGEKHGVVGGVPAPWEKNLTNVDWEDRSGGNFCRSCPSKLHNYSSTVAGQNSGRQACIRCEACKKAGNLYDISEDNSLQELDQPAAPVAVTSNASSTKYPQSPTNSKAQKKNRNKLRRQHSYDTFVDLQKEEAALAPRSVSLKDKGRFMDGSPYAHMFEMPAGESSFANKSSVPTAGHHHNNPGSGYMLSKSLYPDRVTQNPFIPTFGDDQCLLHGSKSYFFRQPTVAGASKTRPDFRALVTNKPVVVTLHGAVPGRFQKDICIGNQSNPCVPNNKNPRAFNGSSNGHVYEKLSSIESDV

Sequence of Sigma non-opioid intracellular receptor 1 (Q60492 whole entry): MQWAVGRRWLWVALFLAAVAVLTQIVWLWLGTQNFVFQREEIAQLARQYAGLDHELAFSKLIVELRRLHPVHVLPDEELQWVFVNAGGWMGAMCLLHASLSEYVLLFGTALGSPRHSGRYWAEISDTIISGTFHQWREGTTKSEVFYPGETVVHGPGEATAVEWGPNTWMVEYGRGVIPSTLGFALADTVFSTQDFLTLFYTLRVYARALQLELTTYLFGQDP
Sequence of Glutamate receptor ionotropic, NMDA 2B (Rattus norvegicus) (Q00960 27-1482 limits assumed): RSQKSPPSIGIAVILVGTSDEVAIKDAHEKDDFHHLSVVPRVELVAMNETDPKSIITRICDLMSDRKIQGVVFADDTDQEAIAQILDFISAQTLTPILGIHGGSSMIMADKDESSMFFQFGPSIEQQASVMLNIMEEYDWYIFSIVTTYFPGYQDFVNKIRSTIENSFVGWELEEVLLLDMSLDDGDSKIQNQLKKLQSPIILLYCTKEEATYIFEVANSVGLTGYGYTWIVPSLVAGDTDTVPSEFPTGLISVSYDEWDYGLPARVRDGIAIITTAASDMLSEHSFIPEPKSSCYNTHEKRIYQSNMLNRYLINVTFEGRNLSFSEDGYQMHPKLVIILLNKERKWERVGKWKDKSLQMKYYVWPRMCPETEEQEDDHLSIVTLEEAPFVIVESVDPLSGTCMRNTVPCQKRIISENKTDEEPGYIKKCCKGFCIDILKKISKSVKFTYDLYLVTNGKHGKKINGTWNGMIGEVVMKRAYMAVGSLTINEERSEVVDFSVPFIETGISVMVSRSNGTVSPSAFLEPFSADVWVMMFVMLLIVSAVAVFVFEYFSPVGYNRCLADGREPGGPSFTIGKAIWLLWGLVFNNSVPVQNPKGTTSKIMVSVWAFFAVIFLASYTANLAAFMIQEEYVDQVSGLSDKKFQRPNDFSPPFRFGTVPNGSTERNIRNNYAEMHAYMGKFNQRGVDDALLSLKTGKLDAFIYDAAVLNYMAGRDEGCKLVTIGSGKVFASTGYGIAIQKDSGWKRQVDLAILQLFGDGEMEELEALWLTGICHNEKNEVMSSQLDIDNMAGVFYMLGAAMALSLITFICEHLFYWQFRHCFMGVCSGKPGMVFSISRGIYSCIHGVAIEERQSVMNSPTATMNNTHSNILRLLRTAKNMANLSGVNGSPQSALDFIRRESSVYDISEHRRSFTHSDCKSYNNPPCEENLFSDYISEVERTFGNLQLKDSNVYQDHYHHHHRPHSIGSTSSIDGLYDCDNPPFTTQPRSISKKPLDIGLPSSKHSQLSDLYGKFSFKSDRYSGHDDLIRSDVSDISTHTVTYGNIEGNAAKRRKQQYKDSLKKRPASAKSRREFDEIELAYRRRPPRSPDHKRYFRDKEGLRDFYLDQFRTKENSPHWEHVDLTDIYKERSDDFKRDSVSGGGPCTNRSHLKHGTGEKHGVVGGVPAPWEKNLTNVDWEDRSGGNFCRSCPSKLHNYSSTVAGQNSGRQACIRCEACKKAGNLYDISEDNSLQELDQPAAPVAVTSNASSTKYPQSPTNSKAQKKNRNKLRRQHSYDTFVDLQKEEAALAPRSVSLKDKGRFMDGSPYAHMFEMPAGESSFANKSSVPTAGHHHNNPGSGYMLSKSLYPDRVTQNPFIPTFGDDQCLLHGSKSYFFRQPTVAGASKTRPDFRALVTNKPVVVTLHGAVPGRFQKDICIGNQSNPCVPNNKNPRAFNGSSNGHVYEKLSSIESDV

SMILES | inhibition [1] | Ratio Ki (Cavia porcellus) | Ki [2] [nM] | Ki [3] [nM] | Ki [4] [nM]
O=C(CN1CCC(O)(c2ccccc2)CC1)c1c[nH]c2ccc(O)cc12 | 32% | 4.7 | 658 | 3080 | 
COc1ccc2[nH]cc(C(=O)CN3CCC(Cc4ccccc4)CC3)c2c1 | 86% | > 500 | 10 | > 5000 | 1670
COc1ccc2[nH]cc(C(=O)CN3CCC(C#N)(c4ccccc4)CC3)c2c1 | 11% |  |  |  | 
CC(=O)C1(c2ccccc2)CCN(CC(=O)c2c[nH]c3ccc(O)cc23)CC1 | 6% |  |  |  | 
N#CC1(c2ccccc2)CCN(CC(=O)c2c[nH]c3ccc(O)cc23)CC1 | 16% |  |  |  | 
O=C(CN1CCC(O)(c2ccc(Cl)cc2)CC1)c1c[nH]c2ccc(O)cc12 | 26% | 11.9 | 47 | 557 | 
COc1ccc2[nH]cc(C(=O)CN3CCC(c4ccccc4)CC3)c2c1 | 8% | 95.5 | 20 | 1910 | 
COc1ccc2[nH]cc(C(=O)CN3CCC(O)(c4ccc(Br)cc4)CC3)c2c1 | 5% | 6 | 10 | 60 | 
COc1ccc2[nH]cc(C(=O)CN3CCC(O)(c4ccc(Cl)cc4)CC3)c2c1 | 15% | 10.5 | 7.5 | 78.5 | 
O=C(CN1CCC(c2ccccc2)CC1)c1c[nH]c2ccc(O)cc12 | 51% | 12 | 224 | 2680 | 
O=C(CN1CCC(Cc2ccccc2)CC1)c1c[nH]c2ccc(O)cc12 | 92% | 61.9 | 76.5 | 4730 | 
O=C(CN1CCC(O)(c2ccc(Br)cc2)CC1)c1c[nH]c2ccc(O)cc12 | 40% | 3.2 | 57 | 185 | 
COc1ccc2[nH]cc(C(=O)CN3CCC(O)(c4ccccc4)CC3)c2c1 | 11% | 5 | 21 | 103 | 
COc1ccc2[nH]cc(C(=O)CN3CCC(C(C)=O)(c4ccccc4)CC3)c2c1 | inactive |  |  |  | 
